Reference: patent publication US5349127A, “Expression of herbicide metabolizing cytochromes P450” (priority 1992, dated 1994)

Test system: Arabidopsis thaliana seedlings
Test: Seed germination assay of transgenic Arabidopsis (Example 26)
Format: in vivo
Design: Visual Inhibition Ratings of Seedlings: key: 4: complete inhibition; 1: no inhibition
Settings: for #R number of resistant seedlings / #S number of sensitive seedlings / % R percent of seedlings which are resistant: 10015 5 ppb
Procedure: T2 seed was harvested from selected putative transformants and sown on GM medium containing 50 mg/l kanamycin and that containing 5 ppb 10015. Plates were sealed with filter tape, cold treated for 2 or more days at 4° C., and then incubated for 10 to 20 days at 23° C. under constant illumination as described above. Seedlings were scored as resistant (green, true leaves develop) and sensitive (no true leaves develop). […] The percent of resistant seedlings is inversely proportional with the two selections. Kanamycin is a positive selection for those seedlings that carry the foreign DNA.
Selected T2 seedlings that were kanamycin resistant were transplanted to soil and were grown to maturity at 21° C. daytime (14 hours) 18° C. nighttime (10 hours) at 65-80% relative humidity. T3 seed was collected, sterilized, and germinated on GM medium containing 50 mg/l kanamycin and that containing 5 ppb 10015. Plates were sealed with filter tape, cold treated for 2 or more days at 4° C., and then incubated for 10 to 20 days at 23° C. under constant illumination as described above. Two of the six plants produced seed that was 100% resistant to kanamycin and 100% sensitive to 10015; they are homozygous for the inserted DNA. The other four parents are heterozygous and show an inverse proportion of kanamycin and 10015 resistant seedlings. […] Therefore, seedlings expressing the P450SU1 gene can be negatively selected.
Germination assays of homozygous seed on various concentrations of 10015 were performed to assay the relative sensitivity to 10015 produced by the three different promoters and between independent transformants. Seed was sterilized, sown on GM medium with 0, 0.5, 1, 2, 5, 10 and 20 ppb 10015, incubated, and scored as described above. In addition, seedlings are rated on a scale of one to three for the amount of growth.
Over 500 seed that are homozygous for the P450SU1 coding region were sown on the same plates. The plates were sealed, cold-treated, and incubated as previously described. […] Wild type seedlings were unaffected by the dying transformed seedlings. In addition, when greater than 10,000 seed of a homozygous Cab-SU111 plant was sown on GM medium with 10 ppb 10015, then cold-treated and incubated as described above, eighteen seedlings were resistant to 10015 and were unaffected by neighboring seedlings.

Question: What does the source list for `COc1cc(OC)nc(NC(=O)NS(=O)(=O)c2cccc3c2S(=O)(=O)N(C(C)C)C3)n1` [compound 10015]?
Answer: Visual Inhibition Ratings of Seedlings (12.1.1 Cab-SU111, 1 ppb 10015): 1; Visual Inhibition Ratings of Seedlings (12.1.1 Cab-SU111, 2 ppb 10015): 1; Visual Inhibition Ratings of Seedlings (12.1.1 Cab-SU111, 5 ppb 10015): 2; Visual Inhibition Ratings of Seedlings (12.1.1 Cab-SU111, 10 ppb 10015): 4; Visual Inhibition Ratings of Seedlings (12.1.1 Cab-SU111, 20 ppb 10015): 4; Visual Inhibition Ratings of Seedlings (12.16.2 Cab-SU111, 1 ppb 10015): 1; Visual Inhibition Ratings of Seedlings (12.16.2 Cab-SU111, 2 ppb 10015): 1; Visual Inhibition Ratings of Seedlings (12.16.2 Cab-SU111, 5 ppb 10015): 1; Visual Inhibition Ratings of Seedlings (12.16.2 Cab-SU111, 10 ppb 10015): 1; Visual Inhibition Ratings of Seedlings (12.16.2 Cab-SU111, 20 ppb 10015): 1; Visual Inhibition Ratings of Seedlings (12.20.5 Cab-SU111, 1 ppb 10015): 1; Visual Inhibition Ratings of Seedlings (12.20.5 Cab-SU111, 2 ppb 10015): 2; Visual Inhibition Ratings of Seedlings (12.20.5 Cab-SU111, 5 ppb 10015): 3; Visual Inhibition Ratings of Seedlings (12.20.5 Cab-SU111, 10 ppb 10015): 4; Visual Inhibition Ratings of Seedlings (12.20.5 Cab-SU111, 20 ppb 10015): 4; Visual Inhibition Ratings of Seedlings (13.3.1 SU18, 1 ppb 10015): 1; Visual Inhibition Ratings of Seedlings (13.3.1 SU18, 2 ppb 10015): 1; Visual Inhibition Ratings of Seedlings (13.3.1 SU18, 5 ppb 10015): 2; Visual Inhibition Ratings of Seedlings (13.3.1 SU18, 10 ppb 10015): 4; Visual Inhibition Ratings of Seedlings (13.3.1 SU18, 20 ppb 10015): 4; Visual Inhibition Ratings of Seedlings (13.4.6 SSU-SU111, 1 ppb 10015): 1; Visual Inhibition Ratings of Seedlings (13.4.6 SSU-SU111, 2 ppb 10015): 1; Visual Inhibition Ratings of Seedlings (13.4.6 SSU-SU111, 5 ppb 10015): 3; Visual Inhibition Ratings of Seedlings (13.4.6 SSU-SU111, 10 ppb 10015): 4; Visual Inhibition Ratings of Seedlings (13.4.6 SSU-SU111, 20 ppb 10015): 4; Visual Inhibition Ratings of Seedlings (17.1.10 SU18, 1 ppb 10015): 1; Visual Inhibition Ratings of Seedlings (17.1.10 SU18, 2 ppb 10015): 1; Visual Inhibition Ratings of Seedlings (17.1.10 SU18, 5 ppb 10015): 3; Visual Inhibition Ratings of Seedlings (17.1.10 SU18, 10 ppb 10015): 4; Visual Inhibition Ratings of Seedlings (17.1.10 SU18, 20 ppb 10015): 4; Visual Inhibition Ratings of Seedlings (17.17.3 SU18, 1 ppb 10015): 1; Visual Inhibition Ratings of Seedlings (17.17.3 SU18, 5 ppb 10015): 1; Visual Inhibition Ratings of Seedlings (17.17.3 SU18, 10 ppb 10015): 2; Visual Inhibition Ratings of Seedlings (17.17.3 SU18, 20 ppb 10015): 4; Visual Inhibition Ratings of Seedlings (17.74.4 SSU-SU111, 1 ppb 10015): 1; Visual Inhibition Ratings of Seedlings (17.74.4 SSU-SU111, 2 ppb 10015): 1; Visual Inhibition Ratings of Seedlings (17.74.4 SSU-SU111, 5 ppb 10015): 2; Visual Inhibition Ratings of Seedlings (17.74.4 SSU-SU111, 10 ppb 10015): 3; Visual Inhibition Ratings of Seedlings (17.74.4 SSU-SU111, 20 ppb 10015): 3; Visual Inhibition Ratings of Seedlings (17.92.3 SSU-SU111, 1 ppb 10015): 1; Visual Inhibition Ratings of Seedlings (17.92.3 SSU-SU111, 2 ppb 10015): 1; Visual Inhibition Ratings of Seedlings (17.92.3 SSU-SU111, 5 ppb 10015): 1; Visual Inhibition Ratings of Seedlings (17.92.3 SSU-SU111, 10 ppb 10015): 1; Visual Inhibition Ratings of Seedlings (17.92.3 SSU-SU111, 20 ppb 10015): 1; #R number of resistant seedlings (T2 seed ID 12-1, pCab-SU111): 3; #S number of sensitive seedlings (T2 seed ID 12-1, pCab-SU111): 10; % R percent of seedlings which are resistant (T2 seed ID 12-1, pCab-SU111): 23%; #R number of resistant seedlings (T2 seed ID 12-2, pCab-SU111): 13; #S number of sensitive seedlings (T2 seed ID 12-2, pCab-SU111): 0; % R percent of seedlings which are resistant (T2 seed ID 12-2, pCab-SU111): 100%; #R number of resistant seedlings (T2 seed ID 12-4, pCab-SU111): 12; #S number of sensitive seedlings (T2 seed ID 12-4, pCab-SU111): 8; % R percent of seedlings which are resistant (T2 seed ID 12-4, pCab-SU111): 60%; #R number of resistant seedlings (T2 seed ID 12-5, pCab-SU111): 15; #S number of sensitive seedlings (T2 seed ID 12-5, pCab-SU111): 0; % R percent of seedlings which are resistant (T2 seed ID 12-5, pCab-SU111): 100%; #R number of resistant seedlings (T2 seed ID 12-6, pCab-SU111): 5; #S number of sensitive seedlings (T2 seed ID 12-6, pCab-SU111): 9; % R percent of seedlings which are resistant (T2 seed ID 12-6, pCab-SU111): 36%; #R number of resistant seedlings (T2 seed ID 12-7, pCab-SU111): 9; #S number of sensitive seedlings (T2 seed ID 12-7, pCab-SU111): 13; % R percent of seedlings which are resistant (T2 seed ID 12-7, pCab-SU111): 40%; #R number of resistant seedlings (T2 seed ID 12-8, pCab-SU111): 1; #S number of sensitive seedlings (T2 seed ID 12-8, pCab-SU111): 7; % R percent of seedlings which are resistant (T2 seed ID 12-8, pCab-SU111): 13%; #R number of resistant seedlings (T2 seed ID 12-9, pCab-SU111): 3; #S number of sensitive seedlings (T2 seed ID 12-9, pCab-SU111): 9; % R percent of seedlings which are resistant (T2 seed ID 12-9, pCab-SU111): 25%; #R number of resistant seedlings (T2 seed ID 12-10, pCab-SU111): 9; #S number of sensitive seedlings (T2 seed ID 12-10, pCab-SU111): 0; % R percent of seedlings which are resistant (T2 seed ID 12-10, pCab-SU111): 100%; #R number of resistant seedlings (T2 seed ID 12-11, pCab-SU111): 4; #S number of sensitive seedlings (T2 seed ID 12-11, pCab-SU111): 0; % R percent of seedlings which are resistant (T2 seed ID 12-11, pCab-SU111): 100%; #R number of resistant seedlings (T3 seed ID 12-1-1, pCab-SU111): 0; #S number of sensitive seedlings (T3 seed ID 12-1-1, pCab-SU111): 196; % R percent of seedlings which are resistant (T3 seed ID 12-1-1, pCab-SU111): 0%; #R number of resistant seedlings (T3 seed ID 12-1-2, pCab-SU111): 0; #S number of sensitive seedlings (T3 seed ID 12-1-2, pCab-SU111): 191; % R percent of seedlings which are resistant (T3 seed ID 12-1-2, pCab-SU111): 0%; #R number of resistant seedlings (T3 seed ID 12-1-3, pCab-SU111): 42; #S number of sensitive seedlings (T3 seed ID 12-1-3, pCab-SU111): 90; % R percent of seedlings which are resistant (T3 seed ID 12-1-3, pCab-SU111): 32%; #R number of resistant seedlings (T3 seed ID 12-1-4, pCab-SU111): 80; #S number of sensitive seedlings (T3 seed ID 12-1-4, pCab-SU111): 129; % R percent of seedlings which are resistant (T3 seed ID 12-1-4, pCab-SU111): 37%; #R number of resistant seedlings (T3 seed ID 12-1-5, pCab-SU111): 99; #S number of sensitive seedlings (T3 seed ID 12-1-5, pCab-SU111): 177; % R percent of seedlings which are resistant (T3 seed ID 12-1-5, pCab-SU111): 36%; #R number of resistant seedlings (T3 seed ID 12-1-6, pCab-SU111): 83; #S number of sensitive seedlings (T3 seed ID 12-1-6, pCab-SU111): 152; % R percent of seedlings which are resistant (T3 seed ID 12-1-6, pCab-SU111): 35%; #R number of resistant seedlings (WT): 58; #S number of sensitive seedlings (WT): 5; % R percent of seedlings which are resistant (WT): 92%; Visual Inhibition Ratings of Seedlings (Wild type, 1 ppb 10015): 1; Visual Inhibition Ratings of Seedlings (Wild type, 2 ppb 10015): 1; Visual Inhibition Ratings of Seedlings (Wild type, 5 ppb 10015): 1; Visual Inhibition Ratings of Seedlings (Wild type, 10 ppb 10015): 1; Visual Inhibition Ratings of Seedlings (Wild type, 20 ppb 10015): 1
